The target of one experiment is T1, hTP (Homo sapiens, UniProt P21731).
T1 sequence (P21731 1-343): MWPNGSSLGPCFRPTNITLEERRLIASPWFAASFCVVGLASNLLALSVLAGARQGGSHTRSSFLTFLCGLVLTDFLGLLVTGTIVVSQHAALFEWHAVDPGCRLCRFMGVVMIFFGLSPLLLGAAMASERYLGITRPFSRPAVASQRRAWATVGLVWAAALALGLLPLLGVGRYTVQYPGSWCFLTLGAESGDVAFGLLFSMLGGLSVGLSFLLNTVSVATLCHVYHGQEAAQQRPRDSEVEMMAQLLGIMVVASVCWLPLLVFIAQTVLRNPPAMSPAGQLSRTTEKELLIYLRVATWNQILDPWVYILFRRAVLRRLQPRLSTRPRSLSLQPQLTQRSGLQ
The experiment is described as follows: Other receptors functional EC50, hTP. It counts as cell-based. An excerpt:
(§1) U.S. patent application Ser. No. 11/553,143, filed on Oct. 26, 2006, incorporated by reference herein, describes the methods used to obtain the in vitro data in the table below.

In another experiment the target is EP2 (Homo sapiens, UniProt P43116). Description: EP2 binding (Ki).
From the text: as §1

The next experiment deals with T2, hDP (Homo sapiens, UniProt Q13258).
T2 sequence (Q13258 1-359): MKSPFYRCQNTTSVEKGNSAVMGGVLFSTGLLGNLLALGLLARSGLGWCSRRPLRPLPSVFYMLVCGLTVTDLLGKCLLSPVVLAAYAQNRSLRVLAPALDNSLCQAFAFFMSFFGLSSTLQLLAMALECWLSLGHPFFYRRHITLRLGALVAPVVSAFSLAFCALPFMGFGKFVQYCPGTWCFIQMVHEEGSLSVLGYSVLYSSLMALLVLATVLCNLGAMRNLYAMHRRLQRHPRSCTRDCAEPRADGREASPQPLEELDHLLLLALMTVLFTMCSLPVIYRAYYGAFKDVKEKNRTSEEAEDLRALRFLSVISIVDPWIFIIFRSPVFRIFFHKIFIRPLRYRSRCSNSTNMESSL
The experiment is described as follows: Other receptors functional EC50, hDP. In kind it is cell-based.
From the text: as §1

pEC50, pKi: −log10 of the molar value.

Sequence of EP2 (P43116 whole entry): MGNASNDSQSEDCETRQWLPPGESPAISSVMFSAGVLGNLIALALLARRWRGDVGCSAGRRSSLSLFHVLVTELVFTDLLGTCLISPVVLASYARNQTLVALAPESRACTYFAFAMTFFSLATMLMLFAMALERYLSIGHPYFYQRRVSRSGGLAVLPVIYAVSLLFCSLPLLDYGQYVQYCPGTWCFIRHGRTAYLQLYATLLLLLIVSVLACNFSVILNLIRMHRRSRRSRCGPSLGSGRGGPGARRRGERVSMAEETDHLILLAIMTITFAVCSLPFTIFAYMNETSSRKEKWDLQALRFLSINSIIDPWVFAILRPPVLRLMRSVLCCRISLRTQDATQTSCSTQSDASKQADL

On hTP, `CCCCCC(O)c1ccc(N(CC#CCCCC(=O)O)C(C)=O)cc1` (stereo not drawn) [7-(N-(4-(1-hydroxyhexyl)phenyl)acetamido)hept-5-ynoic acid] gave a pEC50 of 5.07.
On to `CCCCCC(O)c1ccc(N(CCCc2ccc(C(=O)O)s2)C(C)=O)cc1` (stereo not drawn) [5-(-3-(N-(4-(1-hydroxyhexyl)phenyl)acetamido)propyl)thiophene-2-carboxylic acid], for which the pKi on EP2 was < 5.00. Also, the pEC50 at hDP is 5.32.

By pEC50 is commonly meant the negative decadic logarithm of the EC50, by convention in mol/L. Lower therefore signals a large EC50. Broadly, the pKi is the Ki on a negative log10 scale, so that one unit is a factor of ten.

The values are drawn from US7985767B2, “Therapeutic amides” (Allergan, Inc., priority 2006, dated 2011).
